Laboratory results taken from patent US20260091078A1, “OLIGOPEPTIDE THAT INHIBITS ANGIOGENESIS AND VASCULAR FUNCTION” (UNIVERSIDAD NACIONAL AUTONOMA DE MEXICO, priority 2019, published 2026).

What was measured:
[1] = system: immortalized endothelial cells from the bovine umbilical vein (BUVEC E6E7); assay: Transwell Matrigel invasion of BUVEC E6E7 stimulated with VEGF; assay type: cell-based; settings: BUVEC E6E7, 100 nM, VEGF 50 ng mL^-1, 24 hours
Method: Endothelial cells were seeded over 100 μl Matrigel™ matrix (380 ng μl^−1) on a permeable ‘transwell’ support in a transwell chamber having an area of 0.33 cm^2 and 8 μm of pore-diameter at a density of 30,000 and 14,000 cells cm^−2 for BUVEC E6E7 and HUVEC cells, respectively. In the upper (luminal) compartment the cells were maintained with starving media F12K having 0.1 or 0.5% FBS for BUVEC E6E7 and HUVEC, respectively. In addition, HUVEC cells were maintained with 100 μg ml^−1 heparin. […] After 24 hours the media from both compartments and the luminal cells were removed. The abluminal cells were fixed with 100% MeOH for 10 minutes, permeabilized with TBS1x-0.5% Triton X-100, and stained with Hoechst 33342. The total number of cells in the abluminal compartment indicates the invasive activity of endothelial cells.
The inhibitory effect of 100 nM of the oligopeptide THGRGFI on the invasion of immortalized endothelial cells from the bovine umbilical vein (BUVEC E6E7) (FIG. 3A) or primary cells from the human umbilical vein (HUVEC) (FIG. 3B) stimulated in each case with VEGF (50 ng mL^−1) was compared with the inhibitory effect of 100 nM of the 123 amino acid vasoinhibin (***P<0.001).

[2] = system: intracellular adhesion molecule 1 (ICAM1); assay: Expression of vasoinhibin target gene ICAM1 mRNA in BUVEC E6E7 (qPCR); assay type: cell-based, bovine; settings: BUVEC E6E7, 100 nM, 4 hours
Method: Vasoinhibin induces the expression of a variety of genes via the activation of NF-KB to promote angiostatic and inflammatory effects. In particular, interleukin-1 alpha (IL-1α) and the intercellular adhesion molecule 1 (ICAM1) are vasoinhibin gene targets in the bovine endothelial cells. To evaluate the ability of the oligopeptide […] to induce the expression of IL-1α and ICAM1, BUVEC […] cells were seeded on 12 well plates with F12K-10% FBS, grown to 80% confluency, and starved with low serum (0.1% FBS) culture medium for 24 h. […] After 4 hours the RNA was extracted from the cells using Trizol (Invitrogen, Carlsbad, CA) and retrotranscribed using the High Capacity cDNA Reverse Transcription Kit (Applied Biosystems, Foster City, CA). The RT-PCR products were quantified in a Maxima SYBRgreen qPCR (Thermo Fisher Scientific) 10 μl final volume reaction mixture containing the template and 0.25 μM of each primer. The PCR amplification was done in the CFX96 Real Time PCR (BioRad), comprising a 10-minute denaturalization at 95° C., followed by 35 amplification cycles (95° C. for 10 sec, 58° C. for 30 sec, and 72° C. for 30 sec). […] The PCR data was analyzed by the 2^-ΔΔCT method and the threshold of the cycles (CT) was normalized by the constitutive housekeeping gene cyclophilin A (PPIA). […]

[3] = system: endothelial cell (BUVEC E6E7) monolayer; assay: Vasopermeability in vitro: transit of Evans blue linked albumin across endothelial monolayer; assay type: cell-based, bovine; settings: 100 nM, 50 ng ml^-1 VEGF
Method: For evaluating if the oligopeptide THGRGFI conserves the inhibitory properties of vasoinhibin on vascular permeability, the transit of Evans blue linked albumin across an endothelial cell (BUVEC E6E7) monolayer was evaluated as follows:
BUVEC E6E7 cells were seeded over a transwell filter (pore of 0.4 μm) at a density of 10,000 cells cm^−2. After 3 days, the monolayers were starved with low serum (0.1 FBS) for 48 hours. Subsequently, 100 nM of the vasoinhibin or the oligopeptide of the present invention were added to the upper compartment (luminal part) of the transwell support, incubated for 1 hour, and followed by the addition of 50 ng ml^−1 of VEGF. Control (Ctl) was without VEGF, vasoinhibin and the oligopeptide. […] Samples of 50 μl of the abluminal compartment were collected and replaced by fresh PBS at 10, 20, 30 and 60 minutes. The absorbance (620 nm) was measured at all time points using a plate reader iMARK (BioRad). Absorbance values confirmed the transit of Evans blue labeled albumin across the endothelial monolayer.

[4] = system: VEGF-induced retinal vasopermeability; assay: Vasopermeability in vivo: VEGF-induced retinal albumin extravasation (Evans blue method); settings: Wistar rats, intravitreal, 20 μM with 300 ng VEGF, 24 hours
Method: For evaluating if the oligopeptide THGRGFI conserves the inhibitory properties of vasoinhibin on VEGF-induced vasopermeability in vivo, the effect of the intravitreal injection of VEGF alone or in combination with the oligopeptide or vasoinhibin in rats was determined.
Wistar rats were intravitreally injected with saline (control) or with 300 ng of VEGF in each case alone or in combination with 20 μM of the oligopeptide of the invention or with 20 μM of vasoinhibin. After 24 hours, the extravasation of albumin into the retina was evaluated using the Evans blue method. Briefly, 45 mg kg^−1 of total weight of the Evans blue dye was injected intravenously to anesthetized rats and was allowed to circulate for 2 hours. Then, the animals were perfused with ˜80 ml of PBS at a flow of ˜40 ml min^−1. The retinas were dissected, dried and incubated with 200 μl of formamide (Mallinckrodt Baker, Phillipsburg, NJ) at 72° C. and after 18 hours the labeled albumin was determined in the retinal extracts.

## Ac-THGRGFI-NH2 [THGRGFI, Thr His Gly Arg Gly Phe Ile]
[1]
  inhibition of invasion of endothelial cells: significatively inhibited
[2]
  fold-change of expression of ICAM1 mRNA versus non-treated control: ~13 fold
[3]
  inhibition of VEGF-induced endothelial permeability (Evans blue-albumin transit): inhibited the VEGF-induced increase in endothelial permeability
[4]
  inhibition of VEGF-induced retinal vasopermeability: blocks the VEGF increase in retinal vasopermeability
